# From patent US20160215268A1, “Suspension Culturing of Pluripotent Stem Cells” (Janssen Biotech, Inc., priority 2014, published 2016)
# System: human embryonic stem cell line H1
# Experiment: OpenArray qRT-PCR mRNA expression in differentiating H1 cells
# Type: cell-based
# Settings: Example 5, condition A, beginning of Stage 6, 100 nM
# Experimental: In addition to monitoring the metabolic profile of the spent media through daily sampling, representative samples of cells were obtained throughout the differentiation process and tested for mRNA expression of a panel of genes via Applied Biosystems® OpenArray® (Life Technologies) and calculated as fold difference in expression compared to pluripotent ISM cells after 24 hours in culture from the beginning of the experiment. FIGS. 2A through M depict data for expression of the following genes in cells differentiated through the first day of Stage 5: PDX1 (FIG.2A); NKX6.1 (FIG. 2B); PAX4 (FIG. 2C); PAX6 (FIG. 2D); NEUROG3(NGN3) (FIG. 2E); ABCC8 (FIG. 2F); Chromogranin-A (“CHGA”) (FIG. 2G); G6PC2 (FIG. 2H); IAPP (FIG. 2I); insulin (“INS”) (FIG. 2J); glucagon (“GCG”) (FIG. 2K); PTF1a (FIG. 2L); and NEUROD1 (FIG. 2M).
# In addition to determining cell protein expression by flow cytometry, samples throughout Stages 3 and 4 of the differentiation process were tested for mRNA expression of a gene panel using OpenArray® qRT-PCR. […]
# Throughout the differentiation process cell samples were collected from the suspension cultures for analysis. Samples were analyzed for mRNA expression (OpenArray® qRT-PCR) and protein expression (flow cytometry and florescent immune-histochemistry).
smiles,measurement,value
C[C@H](NC(=O)Cc1cc(F)cc(F)c1)C(=O)N[C@@H]1C(=O)N(C)c2ccccc2-c2ccccc21 [gamma secretase inhibitor XX],NGN3 expression,second induction of NGN3
